Reference: patent US11252960B2 (KIMBERLY-CLARK WORLDWIDE, INC., priority 2017, dated 2022)

Assays:
[1] = Determination of Dissociation Constant (pKa) by Potentiometric Titration Method; format: physicochemical; settings: 22° C.
Procedure: Potentiometric Titration Method: A calibrated pH meter was used for the assay. 50 mL solution of each test/reference item solution (0.1 mg/mL) was added to four beakers (two for acid titration and two for base titration). 0.1 N Sodium hydroxide (NaOH) solution was prepared as titrant solution. The pH electrode was placed into the beaker containing test/reference item solution. The initial pH of the solution will be recorded. 100 μL of 0.1 N NaOH was added successively with stirring and the pH at each addition was recorded. Base titrations were carried out individually in duplicates until a sudden shift in the pH was observed.

[2] = system: Pseudomonas aeruginosa (ATCC 9027); assay: Anti-bacterial Minimum Inhibitory Concentration (MIC) Method, microbroth dilution; format: cell-based; settings: CAMHB, 37° C., 24 hours, pH 4.5-adjusted stock
Procedure: (§1) Anti-Bacterial and Anti-Fungal Minimum Inhibitory Concentration (MIC) Method Method: Microbroth Dilution Method (96-well format). Test item: […] Solvent: Sterile MilliQ water and 0.1 M Citrate Buffer pH 4.5 Media used: • Bacterial: Cation-Adjusted Mueller-Hinton Broth (CAMHB) • Fungi: RPMI-1640 […] Fungi: • Incubation Temperature: • 25° C. (Candida albicans) • 35° C. (Aspergillus brasiliensis) • Incubation Time: 48 hours • Inoculum Size: 5×10^4 cfu/mL • Strains: • Candida albicans (ATCC 10231) • Aspergillus brasiliensis (ATCC 16404) • End point: Inhibition of growth, Spectrophotometer Reading @ 600 nm • Reference standards: […] All solubilized and pH 4.5-adjusted test compounds were filter-sterilized before subjecting to MIC study. […] All the strains were inoculated on their respective agar medium and incubated under conditions/durations detailed above. • Preparation of inoculum: • The bacterial colony suspension in 0.85% saline was adjusted to 1 McFarland's standard using […] which was further diluted to 1:100 in CAMHB. The fungal suspension for inoculation was prepared in 0.85% saline from 6 days old culture (for mold, A. brasiliensis) and from 2 days old culture (for yeast, C. albicans) from Sabouraud Dextrose agar medium. […] Micro titer plates were prepared as per the CLSI recommendations. One hundred and seventy five microliters of Cation-adjusted Muller Hinton Broth (CAMHB) was added to the first column of a 96 well flat bottom plate, which is the media control. Second column is for the stocks of the test compounds and reference standards from which dilutions are made. Then 175 μL of CAMHB was added to the 5th, 8th and 11th columns, 75 μL of CAMHB to the 4th, 7th and 10th columns and 50 μL of CAMHB to the 3rd, 6th and 9th columns and the last column was the organism control.

[3] = system: Escherichia coli (ATCC 8739); assay: as above; format: cell-based; settings: CAMHB, 37° C., 24 hours, pH 4.5-adjusted stock
Procedure: as §1

[4] = system: Burkholderia cepacia (ATCC 25416); assay: as above; format: cell-based; settings: CAMHB, 37° C., 24 hours, pH 4.5-adjusted stock
Procedure: as §1

[5] = system: Staphylococcus aureus (ATCC 6538); assay: as above; format: cell-based; settings: CAMHB, 37° C., 24 hours, pH 4.5-adjusted stock
Procedure: as §1

[6] = system: Candida albicans (ATCC 10231); assay: Anti-fungal Minimum Inhibitory Concentration (MIC) Method, microbroth dilution; format: cell-based; settings: RPMI-1640, 25° C., 48 hours, pH 4.5-adjusted stock
Procedure: (§2) Anti-Bacterial and Anti-Fungal Minimum Inhibitory Concentration (MIC) Method Method: Microbroth Dilution Method (96-well format). Test item: […] Solvent: Sterile MilliQ water and 0.1 M Citrate Buffer pH 4.5 Media used: • Bacterial: Cation-Adjusted Mueller-Hinton Broth (CAMHB) • Fungi: RPMI-1640 Fungi: • Incubation Temperature: • 25° C. (Candida albicans) • 35° C. (Aspergillus brasiliensis) • Incubation Time: 48 hours • Inoculum Size: 5×10^4 cfu/mL • Strains: • Candida albicans (ATCC 10231) • Aspergillus brasiliensis (ATCC 16404) • End point: Inhibition of growth, Spectrophotometer Reading @ 600 nm • Reference standards: […] All solubilized and pH 4.5-adjusted test compounds were filter-sterilized before subjecting to MIC study. […] All the strains were inoculated on their respective agar medium and incubated under conditions/durations detailed above. • Preparation of inoculum: • The bacterial colony suspension in 0.85% saline was adjusted to 1 McFarland's standard using […] which was further diluted to 1:100 in CAMHB. The fungal suspension for inoculation was prepared in 0.85% saline from 6 days old culture (for mold, A. brasiliensis) and from 2 days old culture (for yeast, C. albicans) from Sabouraud Dextrose agar medium. […] Micro titer plates were prepared as per the CLSI recommendations. One hundred and seventy five microliters of Cation-adjusted Muller Hinton Broth (CAMHB) was added to the first column of a 96 well flat bottom plate, which is the media control. Second column is for the stocks of the test compounds and reference standards from which dilutions are made. Then 175 μL of CAMHB was added to the 5th, 8th and 11th columns, 75 μL of CAMHB to the 4th, 7th and 10th columns and 50 μL of CAMHB to the 3rd, 6th and 9th columns and the last column was the organism control.

[7] = system: Aspergillus brasiliensis (ATCC 16404); assay: as above; format: cell-based; settings: RPMI-1640, 35° C., 48 hours, pH 4.5-adjusted stock
Procedure: as §2

[8] = format: physicochemical; settings: pH 4.5
Procedure: This water was used as a test media for determining the solubility of test/reference items. Stock solutions of concentration 1 mg/mL for test items/reference items was prepared in methanol. The stock solution will be used for preparation of calibration curve standards. Calibration curve of test/reference items was prepared by serially dilution consisting of 4-5-6 concentrations in 96 well format. […] The method was as follows: Calibration curve of test items were prepared by serial dilution consisting of 8 concentrations. […] Water, 50:50). […] 40 mg of test items were weighed into tubes. […] The initial pH of the solubility samples were recorded. […] Then, the solutions were observed visually for any precipitation. […] An aliquot of the supernatant were diluted with equal volume of methanol. […] The samples were then transferred to UV plate and scanned at λmax of that particular test/reference item. Compound #12 was transferred to auto-sampler vials and submitted for LC-MS/MS analysis.

[9] = ultrapure water, pH 4.5, Table 1, 0.1 mg/ml
[10] = ultrapure water, pH 4.5, Table 3, 0.1 mg/ml

Row | Compound | pKa [1, 9] | MIC (%) P. aeruginosa ([2]; Table 1) | MIC (%) E. coli ([3]; Table 1) | MIC (%) B. cepacia ([4]; Table 1) | MIC (%) S. Aureus ([5]; Table 1) | MIC (%) C. albicans ([6]; Table 1) | MIC (%) A. brasiliensis ([7]; Table 1) | Solubility (wt %) [8] | MIC (%) P. aeruginosa ([2]; Table 4) | MIC (%) E. coli ([3]; Table 4) | MIC (%) B. cepacia ([4]; Table 4) | MIC (%) S. Aureus ([5]; Table 4) | MIC (%) C. albicans ([6]; Table 4) | MIC (%) A. brasiliensis ([7]; Table 4) | other results
1 | O=C(O)c1ccc(O[C@@H]2O[C@H](CO)[C@H](O)[C@H](O)[C@H]2O)cc1 [Compound 3, 4-{[(3R,4S,5R,6R)-3,4,5-trihydroxy-6-(hydroxymethyl)oxan-2-yl]oxy}benzoic acid] | 4.5 | >0.87% | >0.87% | >0.87% | >0.87% | >0.87% | >0.87% |  |  |  |  |  |  |  | MIC (%) P. aeruginosa ([2]; Table 1, listed as #3): > 0.87%; MIC (%) E. coli ([3]; Table 1, listed as #3): > 0.87%; MIC (%) B. cepacia ([4]; Table 1, listed as #3): > 0.87%; MIC (%) S. Aureus ([5]; Table 1, listed as #3): > 0.87%; MIC (%) C. albicans ([6]; Table 1, listed as #3): > 0.87%; MIC (%) A. brasiliensis ([7]; Table 1, listed as #3): > 0.87%
2 | O=C(O)c1ccc(OC2OC(CO)C(O)C2O)cc1 (centres unmarked) [Compound 4, 4-{[3,4-dihydroxy-5-(hydroxymethyl)oxolan-2-yl]oxy}benzoic acid] | 4.6 | 0.5% | 1% | 0.25% | 0.125% | >1% | >1% | >1.00 wt % |  |  |  |  |  |  | 
3 | CC(O)COc1ccc(C(=O)O)cc1 (centres unmarked) [Compound 7, 4-(2-hydroxypropoxy) benzoic acid] | 5.6 | 0.039% | 0.079% | 0.02% | 0.02% | >0.079% | >0.079% | 0.123 wt % |  |  |  |  |  |  | 
4 | O=C(OCCCO)c1ccccc1 [Compound 11, Benzoic acid 3-hydroxy-propyl ester] |  |  |  |  |  |  |  | 0.55 wt % | >0.272% | 0.272% | 0.136% | 0.272% | 0.136% | 0.068% | pKa ([1]; pH 4.5, Table 3, 0.1 mg/ml): > 7
5 | O=C(O)c1ccc(OCC(O)CO)cc1 (centres unmarked) [Compound 2, 4-(2,3-dihydroxypropoxy) benzoic acid] | 4.6 | 0.09% | 0.181% | 0.09% | 0.045% | >0.181% | >0.181% | 0.343 wt % |  |  |  |  |  |  | 
6 | O=C(OCCO)c1ccccc1 [Compound 8, Benzoic acid 2-hydroxyethyl ester] |  |  |  |  |  |  |  | >1.0 wt % | 0.237% | 0.475% | 0.118% | 0.475% | 0.475% | 0.118% | pKa [1, 10]: > 7
7 | O=C(O)c1ccc(OCCCCO)cc1 [Compound 6, 4-(4-hydroxybutoxy) benzoic acid] | 4.6 | 0.04% | 0.04% | 0.02% | 0.01% | >0.04% | >0.04% | 0.0667 wt % |  |  |  |  |  |  | 
8 | CCC(O)COC(=O)c1ccccc1 (centres unmarked) [Compound 12, Benzoic acid 2-hydroxy-butyl ester] |  |  |  |  |  |  |  | 0.24 wt % | >0.1175% | 0.0588% | 0.1175% | 0.1175% | 0.1175% | 0.0588% | pKa [1, 10]: > 7
9 | O=C(O)c1ccc(OC2CC(O)C(CO)O2)cc1 (centres unmarked) [Compound 5, 4-{[4-hydroxy-5-(hydroxymethyl)oxolan-2-yl]oxy}benzoic acid] | 5.6 | 0.034% | >0.069% | 0.034% | 0.017% | >0.069% | >0.069% | 0.11 wt % |  |  |  |  |  |  | 
10 | benzoic acid [reference compound] |  | 0.068% | 0.07% | 0.034% | 0.068% | 0.137% | 0.137% |  | 0.068% | 0.07% | 0.034% | 0.068% | 0.137% | 0.137% | 
